Measurements as given in patent publication US8039444B2, “Antisense permeation enhancers” (Isis Pharmaceuticals, Inc., priority 2001, dated 2011).

Details: monkey, not told, po

GCTGATTAGAGAGAGGTCCC (GCTGATTAGAGAGAGGTCCC; chemistry not given here) [antisense oligonucleotide]
permeability: poor permeability
